Data as given in ChEMBL document CHEMBL1125402, “Conformational effects on the activity of drugs. 13. A revision of previously proposed models for the activation of alpha- and beta-adrenergic receptors” (J Med Chem, 1992).

Columns and labels:
[1] = biological target: T1, Adrenergic receptor alpha-1 (Rattus norvegicus) (UniProt P15823+P23944+P43140); assay: Intrinsic activity was expressed as the ratio between maximal response elicited by compound and that elicited by full agonist NE towards Alpha-1 adrenergic receptor of isolated rat vas deferens; ND=No data; format: functional
[2] = biological target: T2, Adrenergic receptor alpha-1 (Rattus norvegicus, UniProt P15823+P23944+P43140); assay: Binding affinity towards Alpha-1 adrenergic receptor of rat brain
T2 sequence (P15823 whole entry): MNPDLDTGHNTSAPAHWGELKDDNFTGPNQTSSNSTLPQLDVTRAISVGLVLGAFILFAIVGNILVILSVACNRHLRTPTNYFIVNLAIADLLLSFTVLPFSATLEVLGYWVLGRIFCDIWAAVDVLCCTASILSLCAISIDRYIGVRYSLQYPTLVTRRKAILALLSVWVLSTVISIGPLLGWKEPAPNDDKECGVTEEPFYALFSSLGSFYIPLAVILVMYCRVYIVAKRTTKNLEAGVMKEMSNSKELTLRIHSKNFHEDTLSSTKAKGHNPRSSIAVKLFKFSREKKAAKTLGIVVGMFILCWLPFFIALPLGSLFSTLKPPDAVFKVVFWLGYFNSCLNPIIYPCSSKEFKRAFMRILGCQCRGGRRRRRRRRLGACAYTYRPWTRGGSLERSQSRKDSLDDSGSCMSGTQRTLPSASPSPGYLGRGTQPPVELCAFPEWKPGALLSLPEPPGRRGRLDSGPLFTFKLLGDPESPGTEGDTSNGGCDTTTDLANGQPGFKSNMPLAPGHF
T2 sequence (P23944 whole entry): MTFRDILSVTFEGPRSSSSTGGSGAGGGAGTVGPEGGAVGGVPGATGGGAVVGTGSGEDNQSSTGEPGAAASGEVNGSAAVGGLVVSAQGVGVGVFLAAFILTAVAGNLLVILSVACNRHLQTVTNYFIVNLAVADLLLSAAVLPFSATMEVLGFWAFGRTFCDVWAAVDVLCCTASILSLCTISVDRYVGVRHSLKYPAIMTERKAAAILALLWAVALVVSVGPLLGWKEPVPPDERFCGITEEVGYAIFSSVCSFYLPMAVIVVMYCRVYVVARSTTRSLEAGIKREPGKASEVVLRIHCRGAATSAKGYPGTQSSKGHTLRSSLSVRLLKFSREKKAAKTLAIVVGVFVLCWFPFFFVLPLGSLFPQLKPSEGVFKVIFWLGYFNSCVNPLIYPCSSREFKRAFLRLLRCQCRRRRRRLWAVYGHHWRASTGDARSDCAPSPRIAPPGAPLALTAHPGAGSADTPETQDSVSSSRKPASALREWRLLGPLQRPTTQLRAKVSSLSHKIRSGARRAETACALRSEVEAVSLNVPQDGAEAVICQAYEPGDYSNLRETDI
T2 sequence (P43140 whole entry): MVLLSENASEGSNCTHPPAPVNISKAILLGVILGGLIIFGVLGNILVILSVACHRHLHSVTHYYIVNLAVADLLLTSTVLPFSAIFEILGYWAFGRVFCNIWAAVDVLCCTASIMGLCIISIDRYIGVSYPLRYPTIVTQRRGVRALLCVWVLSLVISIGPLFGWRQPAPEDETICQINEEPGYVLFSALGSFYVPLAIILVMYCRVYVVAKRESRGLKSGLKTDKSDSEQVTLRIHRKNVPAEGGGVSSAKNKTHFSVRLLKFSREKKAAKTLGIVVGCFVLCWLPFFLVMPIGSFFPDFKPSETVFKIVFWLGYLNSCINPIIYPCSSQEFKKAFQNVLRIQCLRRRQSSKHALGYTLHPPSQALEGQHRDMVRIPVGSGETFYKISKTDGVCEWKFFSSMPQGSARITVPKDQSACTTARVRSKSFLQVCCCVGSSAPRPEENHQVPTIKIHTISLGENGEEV

[3] = biological target: T3, Beta-2 adrenergic receptor (Bos taurus, UniProt Q28044); assay: Compound was evaluated for beta adrenergic binding affinity towards beta-2 receptor of bovine lung
T3 sequence (Q28044 whole entry): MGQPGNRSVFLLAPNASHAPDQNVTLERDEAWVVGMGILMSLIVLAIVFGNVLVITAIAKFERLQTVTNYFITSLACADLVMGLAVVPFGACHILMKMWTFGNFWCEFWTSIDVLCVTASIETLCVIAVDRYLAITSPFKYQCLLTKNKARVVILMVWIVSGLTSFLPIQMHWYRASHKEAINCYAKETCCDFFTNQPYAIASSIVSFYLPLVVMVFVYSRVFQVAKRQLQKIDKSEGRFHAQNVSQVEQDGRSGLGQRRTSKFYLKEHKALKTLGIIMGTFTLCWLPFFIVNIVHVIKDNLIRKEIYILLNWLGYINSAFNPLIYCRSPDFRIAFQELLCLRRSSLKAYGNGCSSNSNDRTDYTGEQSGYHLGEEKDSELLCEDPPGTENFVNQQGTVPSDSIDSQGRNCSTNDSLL

[4] = biological target: T4, Adrenergic receptor alpha-2 (Rattus norvegicus, UniProt P22086+P19328+P22909); assay: Compound was evaluated for alpha adrenergic binding affinity towards Alpha-2 adrenergic receptor of rat brain
T4 sequence (P22086 whole entry): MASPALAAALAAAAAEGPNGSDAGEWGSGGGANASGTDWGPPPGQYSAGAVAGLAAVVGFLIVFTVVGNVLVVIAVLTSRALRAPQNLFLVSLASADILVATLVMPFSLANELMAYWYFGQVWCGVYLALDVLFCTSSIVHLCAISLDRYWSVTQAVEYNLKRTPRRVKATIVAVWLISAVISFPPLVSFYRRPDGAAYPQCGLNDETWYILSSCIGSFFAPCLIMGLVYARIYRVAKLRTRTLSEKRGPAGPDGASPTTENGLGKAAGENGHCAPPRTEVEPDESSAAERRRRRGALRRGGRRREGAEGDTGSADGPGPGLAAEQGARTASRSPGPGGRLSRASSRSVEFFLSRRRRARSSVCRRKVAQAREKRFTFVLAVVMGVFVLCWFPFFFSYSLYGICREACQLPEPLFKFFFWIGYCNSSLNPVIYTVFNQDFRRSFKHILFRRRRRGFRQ
T4 sequence (P19328 whole entry): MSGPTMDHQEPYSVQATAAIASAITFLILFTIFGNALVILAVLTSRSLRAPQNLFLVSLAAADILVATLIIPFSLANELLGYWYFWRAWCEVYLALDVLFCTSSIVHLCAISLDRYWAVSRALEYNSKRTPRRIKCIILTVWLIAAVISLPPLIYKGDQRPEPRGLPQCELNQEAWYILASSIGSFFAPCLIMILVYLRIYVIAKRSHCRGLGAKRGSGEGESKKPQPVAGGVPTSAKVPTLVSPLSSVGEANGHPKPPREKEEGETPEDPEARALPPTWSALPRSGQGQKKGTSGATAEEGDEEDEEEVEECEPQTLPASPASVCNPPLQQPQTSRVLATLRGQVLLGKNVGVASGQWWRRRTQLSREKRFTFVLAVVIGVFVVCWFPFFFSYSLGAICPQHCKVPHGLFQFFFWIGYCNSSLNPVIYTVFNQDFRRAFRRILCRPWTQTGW
T4 sequence (P22909 whole entry): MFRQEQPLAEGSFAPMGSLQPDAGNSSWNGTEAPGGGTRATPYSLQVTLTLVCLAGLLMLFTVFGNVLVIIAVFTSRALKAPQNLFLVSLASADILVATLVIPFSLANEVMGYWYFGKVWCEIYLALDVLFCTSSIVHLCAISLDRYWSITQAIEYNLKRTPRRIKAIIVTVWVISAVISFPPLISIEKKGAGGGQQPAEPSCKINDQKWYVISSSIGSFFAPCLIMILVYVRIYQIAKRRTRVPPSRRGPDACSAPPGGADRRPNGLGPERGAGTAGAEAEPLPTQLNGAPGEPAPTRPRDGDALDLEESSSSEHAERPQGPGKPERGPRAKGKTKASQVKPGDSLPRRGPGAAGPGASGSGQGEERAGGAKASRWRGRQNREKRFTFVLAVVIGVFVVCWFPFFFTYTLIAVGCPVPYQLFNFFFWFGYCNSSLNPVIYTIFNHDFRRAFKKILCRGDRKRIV

[5] = biological target: T5, Beta-1 adrenergic receptor (Rattus norvegicus, UniProt P18090)
T5 sequence (P18090 whole entry): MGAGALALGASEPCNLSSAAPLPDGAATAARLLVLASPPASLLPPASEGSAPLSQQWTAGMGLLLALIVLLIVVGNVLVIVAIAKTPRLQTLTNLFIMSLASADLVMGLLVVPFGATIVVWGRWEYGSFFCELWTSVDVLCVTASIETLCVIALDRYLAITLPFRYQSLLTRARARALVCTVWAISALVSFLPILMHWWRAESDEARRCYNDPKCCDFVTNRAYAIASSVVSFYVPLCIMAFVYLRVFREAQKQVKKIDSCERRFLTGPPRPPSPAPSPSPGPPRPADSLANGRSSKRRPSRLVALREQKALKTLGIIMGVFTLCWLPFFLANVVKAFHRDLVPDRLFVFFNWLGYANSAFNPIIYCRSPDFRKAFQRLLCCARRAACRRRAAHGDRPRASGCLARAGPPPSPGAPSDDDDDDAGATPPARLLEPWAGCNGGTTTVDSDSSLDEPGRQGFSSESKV
Description: Compound was evaluated for beta adrenergic binding affinity towards Beta-1 adrenergic receptor of rat brain

[6] = biological target: T6, Adrenergic receptor alpha-2 (Homo sapiens) (UniProt P08913+P18825+P18089); conditions: Cavia porcellus; Ileum
Description: Intrinsic activity was expressed as the ratio between maximal response elicited by compound and that elicited by full agonist NE towards Alpha-2 adrenergic receptor of isolated guinea pig ileum

[7] = biological target: Beta-1 adrenergic receptor (Cavia porcellus) (UniProt B0FL73)
Sequence of Beta-1 adrenergic receptor (Cavia porcellus) (B0FL73 1-467): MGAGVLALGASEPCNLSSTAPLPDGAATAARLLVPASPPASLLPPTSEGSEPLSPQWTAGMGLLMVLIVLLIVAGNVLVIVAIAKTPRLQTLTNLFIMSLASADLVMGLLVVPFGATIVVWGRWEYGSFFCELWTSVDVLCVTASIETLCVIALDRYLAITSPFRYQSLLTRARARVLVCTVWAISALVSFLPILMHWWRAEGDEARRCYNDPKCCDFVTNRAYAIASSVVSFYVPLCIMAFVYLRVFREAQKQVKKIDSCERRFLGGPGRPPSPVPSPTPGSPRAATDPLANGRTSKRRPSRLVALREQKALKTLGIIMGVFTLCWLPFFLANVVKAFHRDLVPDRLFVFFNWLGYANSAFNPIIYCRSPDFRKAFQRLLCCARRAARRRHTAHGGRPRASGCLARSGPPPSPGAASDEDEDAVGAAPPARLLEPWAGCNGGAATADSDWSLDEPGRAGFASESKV

[8] = biological target: Beta-2 adrenergic receptor (Cavia porcellus) (UniProt Q8K4Z4)
Sequence of Beta-2 adrenergic receptor (Cavia porcellus) (Q8K4Z4 whole entry, looked up): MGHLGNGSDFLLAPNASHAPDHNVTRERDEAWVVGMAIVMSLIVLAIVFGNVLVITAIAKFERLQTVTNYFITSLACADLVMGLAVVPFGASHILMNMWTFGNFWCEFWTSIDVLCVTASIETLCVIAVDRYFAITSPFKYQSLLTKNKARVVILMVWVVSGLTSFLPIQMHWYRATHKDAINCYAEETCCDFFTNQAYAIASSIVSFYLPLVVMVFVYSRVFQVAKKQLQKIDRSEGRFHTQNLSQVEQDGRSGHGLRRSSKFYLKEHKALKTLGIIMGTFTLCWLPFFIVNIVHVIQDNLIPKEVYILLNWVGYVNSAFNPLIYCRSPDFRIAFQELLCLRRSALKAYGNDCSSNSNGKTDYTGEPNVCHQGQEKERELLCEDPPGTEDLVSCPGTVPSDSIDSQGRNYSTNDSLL
Description: Compound was evaluated for beta adrenoceptor agonistic activity towards beta 2 receptor of isolated guinea pig tracheal strip

[9] = biological target: T6, Adrenergic receptor alpha-2 (Homo sapiens); assay: Intrinsic activity was expressed as the ratio between maximal response elicited by compound and that elicited by full agonist NE towards alpha-2 adrenergic receptor of isolated guinea pig ileum; format: functional, tissue-based; conditions: Cavia porcellus
[10] = biological target: T6, Adrenergic receptor alpha-2 (Homo sapiens); assay: Compound was evaluated for alpha adrenoceptor agonistic activity towards alpha-2 adrenergic receptor of isolated guinea pig ileum; format: functional, tissue-based; conditions: Cavia porcellus, target entry is the homologue from another species
[11] = biological target: T4, Adrenergic receptor alpha-2; assay: Binding affinity towards Alpha-2 adrenergic receptor of rat brain
[12] = biological target: Beta-1 adrenergic receptor (Cavia porcellus) (UniProt B0FL73); assay: Compound was evaluated for beta adrenoceptor agonistic activity towards Beta-1 adrenergic receptor of isolated guinea pig atria; format: functional
[13] = biological target: T3, Beta-2 adrenergic receptor; assay: Compound was evaluated for beta adrenergic binding affinity towards Beta-2 adrenergic receptor of bovine lung
[14] = biological target: Beta-2 adrenergic receptor (Cavia porcellus) (UniProt Q8K4Z4); assay: Compound was evaluated for beta adrenoceptor agonistic activity towards Beta-2 adrenergic receptor of isolated guinea pig tracheal strip; format: functional
[15] = biological target: Beta-1 adrenergic receptor (Cavia porcellus) (UniProt B0FL73); assay: Intrinsic activity was expressed as the ratio between maximal response elicited by compound and that elicited by full agonist ISO towards beta 1 receptor of isolated guinea pig atria; format: functional
[16] = biological target: T1, Adrenergic receptor alpha-1 (Rattus norvegicus); assay: Compound was evaluated for alpha adrenoceptor agonistic activity towards Alpha-1 adrenergic receptor of isolated rat vas deferens; format: functional, tissue-based
[17] = biological target: T1, Adrenergic receptor alpha-1 (Rattus norvegicus); conditions: Vas deferens
[18] = biological target: T5, Beta-1 adrenergic receptor; assay: Compound was evaluated for beta adrenergic binding affinity towards beta-1 receptor of rat brain
[19] = biological target: Beta-1 adrenergic receptor (Cavia porcellus) (UniProt B0FL73); assay: Compound was evaluated for beta adrenoceptor agonistic activity towards Beta-1 adrenergic receptor of isolated guinea pig atria (exp 1); format: functional
[20] = biological target: Beta-1 adrenergic receptor (Cavia porcellus) (UniProt B0FL73); assay: Compound was evaluated for beta adrenoceptor agonistic activity towards beta 1 receptor of isolated guinea pig atria (exp 2); format: functional
[21] = biological target: Beta-2 adrenergic receptor (Cavia porcellus) (UniProt Q8K4Z4); assay: Intrinsic activity was expressed as the ratio between maximal response elicited by compound and that elicited by full agonist ISO towards beta 2 receptor of isolated guinea pig tracheal strip (exp 1); format: functional
[22] = biological target: Beta-2 adrenergic receptor (Cavia porcellus) (UniProt Q8K4Z4); assay: Intrinsic activity was expressed as the ratio between maximal response elicited by compound and that elicited by full agonist ISO towards beta 2 receptor of isolated guinea pig tracheal strip (exp 2); format: functional
[23] = biological target: Beta-1 adrenergic receptor (Cavia porcellus) (UniProt B0FL73); assay: Intrinsic activity was expressed as the ratio between maximal response elicited by compound and that elicited by full agonist ISO towards Beta-1 adrenergic receptor of isolated guinea pig atria (exp 1); format: functional
[24] = biological target: Beta-1 adrenergic receptor (Cavia porcellus) (UniProt B0FL73); assay: Compound was evaluated for beta adrenergic […]
[25] = biological target: Beta-2 adrenergic receptor (Cavia porcellus) (UniProt Q8K4Z4); assay: Intrinsic activity was expressed as the ratio between maximal response elicited by compound and that elicited by full agonist ISO towards Beta-2 adrenergic receptor of isolated guinea pig tracheal strip (exp 1); format: functional
[26] = biological target: Beta-2 adrenergic receptor (Cavia porcellus) (UniProt Q8K4Z4); remark: listed apart in the source
Description: Compound was evaluated for beta adrenoceptor agonistic activity towards Beta-2 adrenergic receptor of isolated guinea pig tracheal strip (exp 2)

[27] = biological target: T1, Adrenergic receptor alpha-1 (Rattus norvegicus); assay: Intrinsic activity was expressed as the ratio between maximal response elicited by compound and that elicited by full agonist NE towards Alpha-1 adrenergic receptor of isolated rat vas deferens; format: functional, tissue-based
[28] = biological target: Beta-1 adrenergic receptor (Cavia porcellus) (UniProt B0FL73); assay: Intrinsic activity was expressed as the ratio between maximal response elicited by compound and that elicited by full agonist ISO towards beta-1 receptor of isolated guinea pig atria; format: functional

SMILES	Ki [2] [µM]	Ki [3] [µM]	Ki [4] [µM]	Ki [5] [µM]	pD2 [6]	pD2 [7]	pD2 [8]	Intrinsic activity [9]	pD2 [10]	Ki [11] [µM]	pD2 [12]	Ki [13] [µM]	pD2 [14]	also measured
CC(C)NC1CCc2cc(O)c(O)cc2[C@H]1O (some centres not stated)	1.2	> 100	1.57	> 100	5.72	4.44	6.17							pD2 [1]: < 3.5
CC(C)N1CCCC(O)(c2ccc(O)c(O)c2)C1 (configuration not stated)	36			60				0.89	4.57	4.8	3.5	92	4.64	Intrinsic activity [15]: 0.16
NC[C@H](O)c1ccc(O)c(O)c1 [NOREPINEPHRINE]		6			6.56	6.32	6.03							Intrinsic activity [16]: 1; pD2 [17]: 5.12
CC(C)N1CCOC(c2ccc(O)c(O)c2)C1 (configuration not stated)	6.7	36	5.1		5									Ki [18]: 48 µM; Intrinsic activity [19]: 0.77; pD2 [20]: 5.74; Intrinsic activity [21]: 0.87; Intrinsic activity [22]: 0.93; Intrinsic activity [23]: 0.88; pD2 [24]: 4.62; pD2 [25]: 5.91; pD2 [26]: 6.34
N[C@@H]1CCc2cc(O)c(O)cc2[C@H]1O	0.3			> 100				1.42	6.63	0.09	4.57	71	5.36	Intrinsic activity [27]: 0.5; pD2 [16]: 4.6; Intrinsic activity [28]: 0.81
